Laboratory results: patent publication US9776972B2, “Pyrazole derivatives as arginine methyltransferase inhibitors and uses thereof” (priority 2013, dated 2017)
Counter-ions that a name gives are not always drawn.

target: T1, Human CARM1 (PRMT4) (Homo sapiens, UniProt Q86X55); test: CARM1 Biochemical Assay (3H-SAM Flashplate, peptide substrate); details: not given
T1 construct: Flag-CARM1-His; made in house; host or cells: HEK 293F cells (BacMam baculovirus)
T1 sequence (Q86X55 1-585 isoform Q86X55-1): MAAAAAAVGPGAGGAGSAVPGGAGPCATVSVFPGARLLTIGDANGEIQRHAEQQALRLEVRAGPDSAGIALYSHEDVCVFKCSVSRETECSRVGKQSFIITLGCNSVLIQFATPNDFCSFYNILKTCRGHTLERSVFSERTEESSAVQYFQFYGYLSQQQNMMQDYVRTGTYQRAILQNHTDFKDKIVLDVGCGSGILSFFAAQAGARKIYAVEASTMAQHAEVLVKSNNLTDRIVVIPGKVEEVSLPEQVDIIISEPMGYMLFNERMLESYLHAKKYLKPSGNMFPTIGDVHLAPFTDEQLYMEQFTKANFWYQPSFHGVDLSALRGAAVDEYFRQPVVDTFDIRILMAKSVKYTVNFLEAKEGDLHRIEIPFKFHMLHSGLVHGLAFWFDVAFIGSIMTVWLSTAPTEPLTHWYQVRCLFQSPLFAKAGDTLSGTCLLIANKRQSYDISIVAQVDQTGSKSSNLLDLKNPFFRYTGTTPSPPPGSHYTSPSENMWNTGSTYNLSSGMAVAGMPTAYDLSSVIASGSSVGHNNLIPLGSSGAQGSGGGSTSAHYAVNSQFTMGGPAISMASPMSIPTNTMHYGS
Text: S-adenosylmethionine (SAM), S-adenosylhomocysteine (SAH), bicine, Tween20, dimethylsulfoxide (DMSO), bovine skin gelatin (BSG), sodium butyrate and Tris(2-carboxyethyl)phosphine hydrochloride solution (TCEP) were purchased from Sigma-Aldrich at the highest level of purity possible. ^3H-SAM was purchase from American Radiolabeled Chemicals with a specific activity of 80 Ci/mmol. 384-well streptavidin Flashplates were purchased from PerkinElmer.
Peptide representative of human histone H3 residues 16-30 was synthesized with an N-terminal linker-affinity tag motif and a C-terminal amide cap by 21st Century Biochemicals. […] The sequence was Biot-Ahx-[…]-amide and contained a monomethylated arginine at position 26 (SEQ ID NO.: 14).
Recombinant baculovirus were generated according to Bac-to-Bac kit instructions (Life Technologies). […] Infections were carried out at 37° C. for 48 hours, harvested by centrifugation, and stored at −80° C. for purification.
Column was washed with 500 mM NaCl in buffer A and Flag-CARM1-His was eluted with 200 ug/ml FLAG peptide in buffer A. Pooled fractions were dialyzed in 20 mM Tris, 150 mM NaCl, 5% glycerol and 1 mM DTT, pH 7.8.
General Procedure for CARM1 Enzyme Assays on Peptide Substrates.
The assays were all performed in a buffer consisting of 20 mM Bicine (pH=7.6), 1 mM TCEP, 0.005% BSG, and 0.002% Tween 20, prepared on the day of use. […] DMSO (1 ul) was added to Columns 11, 12, 23, 24, rows A-H for the maximum signal control and 1 ul of SAH, a known product and inhibitor of CARM1, was added to columns 11, 12, 23, 24, rows I-P for the minimum signal control. A cocktail (40 ul) containing the CARM1 enzyme was added by Multidrop Combi (Thermo-Fisher). The compounds were allowed to incubate with CARM1 for 30 min at room temperature, then a cocktail (10 ul) containing ^3H-SAM and peptide was added to initiate the reaction (final volume=51 ul). […] The assays were stopped by the addition of non-radiolabeled SAM (10 ul) to a final concentration of 300 uM, which dilutes the ^3H-SAM to a level where its incorporation into the peptide substrate is no longer detectable. 50 ul of the reaction in the 384-well polypropylene plate was then transferred to a 384-well Flashplate and the biotinylated peptides were allowed to bind to the streptavidin surface for at least 1 hour before being washed once with 0.1% Tween20 in a Biotek ELx405 plate washer. The plates were then read in a PerkinElmer TopCount plate reader to measure the quantity of ^3H-labeled peptide bound to the Flashplate surface, measured as disintegrations per minute (dpm) or alternatively, referred to as counts per minute (cpm).
Where dpm=disintegrations per minute, cmpd=signal in assay well, and min and max are the respective minimum and maximum signal controls.
Where top and bottom are the normally allowed to float, but may be fixed at 100 or 0 respectively in a 3-parameter fit. The Hill Coefficient normally allowed to float but may also be fixed at 1 in a 3-parameter fit. Y is the % inhibition and X is the compound concentration.

Row | SMILES | IC50 [nM]
1 | CNCCN(C)Cc1cnn(C)c1-c1ccc(OC(C)C)cc1 [Compound 244, hydrochloride] | < 100

same assay, conditions: single experiment or average of multiple experiments

Row | SMILES | IC50 [nM]
2 | CCn1ncc(CN(C)CCNC)c1-c1ccc(F)cc1 [Compound 7] | 2660
3 | CCn1cc(CN(C)CCNC)c(-c2ccc(F)cc2)n1 [Compound 8] | 3460
4 | CN(CCN)Cc1c[nH]nc1-c1ccc(OCC(F)(F)F)cc1 [Compound 96] | 76.5
5 | CC(C)Oc1ccc(-c2n[nH]cc2CN(C)CCN)cc1F [Compound 97] | 511
6 | CN(CCN)Cc1c[nH]nc1-c1ccc(C2CCOCC2)cc1 [Compound 98] | 439
7 | CN(CCN)Cc1c[nH]nc1-c1ccc(F)cc1F [Compound 99] | 7610
8 | CN(CCN)Cc1n[nH]cc1-c1ccc(C#N)cc1 [Compound 100] | 4130
9 | CC(C)c1ccc(-c2c[nH]nc2CN(C)CCN)cc1 [Compound 101] | 4760
10 | CN(CCN)Cc1n[nH]cc1-c1ccc(Cl)cc1 [Compound 102] | 1060
11 | CN(CCN)Cc1n[nH]cc1-c1ccc(C(F)(F)F)cc1 [Compound 103] | 1480
12 | CN(CCN)Cc1n[nH]cc1-c1ccc(C2CC2)cc1 [Compound 104] | 1960
13 | CN(CCN)Cc1n[nH]cc1-c1ccc(OC(F)(F)F)cc1 [Compound 105] | 3060
14 | COc1ccc(-c2n[nH]cc2CN(C)CCN)c(F)c1 [Compound 107] | 2860
15 | Cc1ccc(-c2n[nH]cc2CN(C)CCN)c(F)c1 [Compound 108] | 1530
16 | COc1ccccc1-c1n[nH]cc1CN(C)CCN [Compound 109] | 5210
17 | Cc1cc(C#N)ccc1-c1n[nH]cc1CN(C)CCN [Compound 110] | 8770
18 | CN(CCN)Cc1c[nH]nc1-c1cc(F)cc(F)c1 [Compound 111] | 458
19 | CC(=O)c1cccc(-c2n[nH]cc2CN(C)CCN)c1 [Compound 112] | 2440
20 | CN(CCN)Cc1c[nH]nc1-c1ccc(OC2CC2)cc1 [Compound 114] | 332
21 | CC(O)c1ccc(-c2n[nH]cc2CN(C)CCN)cc1 (stereo not shown) [Compound 115] | 3530
22 | CN(CCN)Cc1c[nH]nc1-c1ccc(C2CC2)cc1 [Compound 116] | 1220
23 | CN(CCN)Cc1c[nH]nc1-c1ccc(C(F)(F)F)c(Cl)c1 [Compound 117] | 602
24 | CN(CCN)Cc1c[nH]nc1-c1ccc(Cl)c(F)c1 [Compound 118] | 114

Row | SMILES | IC50 [nM]
25 | CN(CCN)Cc1n[nH]cc1-c1ccc(OC2CC2)cc1 [Compound 119] | 441
26 | CN(CCN)Cc1c[nH]nc1-c1cc(F)cc(Cl)c1 [Compound 121] | 216
27 | CN(CCN)Cc1c[nH]nc1-c1cccc(Cl)c1 [Compound 122] | 405
28 | CN(CCN)Cc1c[nH]nc1-c1cccc(Cl)c1F [Compound 123] | 1870
29 | CN(CCN)Cc1c[nH]nc1-c1ccc(F)c(Cl)c1 [Compound 124] | 545
30 | COc1ccc(-c2n[nH]cc2CN(C)CCN)cc1Cl [Compound 125] | 1440
31 | Cc1ccc(-c2n[nH]cc2CN(C)CCN)cc1Cl [Compound 126] | 102
32 | COc1cc(Cl)cc(-c2n[nH]cc2CN(C)CCN)c1 [Compound 127] | 1120
33 | Cc1c(F)cccc1-c1n[nH]cc1CN(C)CCN [Compound 129] | 2420
34 | COc1cccc(-c2n[nH]cc2CN(C)CCN)c1 [Compound 130] | 2410
35 | Cc1cccc(-c2n[nH]cc2CN(C)CCN)c1 [Compound 131] | 1180
36 | CN(CCN)Cc1c[nH]nc1-c1ccc(Cl)cc1F [Compound 132] | 2110
37 | Cc1cc(Cl)ccc1-c1n[nH]cc1CN(C)CCN [Compound 133] | 4270
38 | COc1ccc(-c2n[nH]cc2CN(C)CCN)cc1F [Compound 134] | 2600
39 | CCNC(=O)c1ccc(-c2n[nH]cc2CN(C)CCN)cc1 [Compound 136] | 2070
40 | CN(CCN)Cc1c[nH]nc1-c1cc(Cl)cc(Cl)c1 [Compound 137] | 849
41 | CN(CCN)Cc1n[nH]cc1-c1ccc(OC(F)F)cc1 [Compound 138] | 2700
42 | CN(CCN)Cc1c[nH]nc1-c1ccc(C(F)(F)F)c(F)c1 [Compound 141] | 1370
43 | COc1cc(-c2n[nH]cc2CN(C)CCN)ccc1F [Compound 142] | 1290
44 | CCN(CC)C(=O)c1ccc(-c2n[nH]cc2CN(C)CCN)cc1 [Compound 143] | 5850
45 | CC(C)Oc1ccc(-c2c[nH]nc2CN(C)CCN)cc1F [Compound 144] | 4620
46 | CNCCN(C)Cc1cnn(C)c1-c1ccc(OC(C)C)cc1 [Compound 244, hydrochloride] | 92.5
